Source: PubChem BioAssay (NCI)
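Method: 48-hour compound exposure of cells in 96-well plates, five concentrations, linear interpolation of endpoints. TGI is the concentration that stops growth completely.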

Columns and labels:
Experiment in all cases: growth of human tumour cells (NCI), 48 h
A498 renal = system: A498 renal
HCT-116 colon = system: HCT-116 colon
HT29 colon = system: HT29 colon
K-562 leukemia = system: K-562 leukemia
LOX IMVI melanoma = system: LOX IMVI melanoma
MALME-3M melanoma = system: MALME-3M melanoma
MDA-MB-231 breast = system: MDA-MB-231 breast
MOLT-4 leukemia = system: MOLT-4 leukemia
NCI/ADR-RES ovarian = system: NCI/ADR-RES ovarian

Structure (SMILES) | TGI (A498 renal) | TGI (HCT-116 colon) | TGI (HT29 colon) | TGI (K-562 leukemia) | TGI (LOX IMVI melanoma) | TGI (MALME-3M melanoma) | TGI (MDA-MB-231 breast) | TGI (MOLT-4 leukemia) | TGI (NCI/ADR-RES ovarian)
CC1=NN(c2cc(Cl)c(S(=O)(=O)O)cc2Cl)C2(C1)C(Cl)C(=O)N2c1nc2ccccc2s1 (stereo not drawn) | > 100 µM | > 100 µM | > 100 µM | > 100 µM | > 100 µM | > 100 µM | > 100 µM | > 100 µM | > 100 µM
O=C(O)C1C2OC(C(Br)C2Br)C1C(=O)O (stereo not drawn) | > 100 µM | > 100 µM | > 100 µM | > 100 µM | > 100 µM | > 100 µM | > 100 µM | > 100 µM | > 100 µM
CCOC(=O)/C=C(/OCC)[C@@H]1C(C(=O)c2ccc(Cl)cc2)[C@@H]1/C(=C\C(=O)OCC)OCC (stereo partly drawn) | > 100 µM | > 100 µM | > 100 µM | > 22.3 µM | > 100 µM | > 100 µM | > 100 µM | > 24.4 µM | > 34 µM
CC[P+](c1ccccc1)(N(C)C)N(C)C | > 100 µM | > 100 µM | > 100 µM | > 100 µM | > 100 µM | > 100 µM | > 100 µM | > 100 µM | > 100 µM
CCOC(=O)/C(=C/c1cn(C(C)=O)c2ccccc12)P(=O)(OC)OC | 52.4 µM | > 100 µM | > 100 µM | > 100 µM | 79.2 µM | – | > 100 µM | 74.6 µM | > 100 µM
C[C@]12CC[C@H]3[C@@H](CCC4=C/C(=N/OCCN5CCCCC5)CC[C@@]43C)[C@@H]1CC[C@@H]2O | – | > 100 µM | 15.2 µM | 7.25 µM | 57.3 µM | 33.7 µM | 50.6 µM | 20.9 µM | 54.4 µM
CN(CC(=O)O)c1ncc2c(n1)-c1ccccc1CC2 | > 100 µM | > 100 µM | > 100 µM | > 100 µM | > 100 µM | > 100 µM | > 100 µM | > 100 µM | > 100 µM
CCOC(=O)NCC(=O)NCC(=O)NCC(N)=O | – | > 100 µM | > 100 µM | > 100 µM | – | > 100 µM | > 100 µM | > 100 µM | > 100 µM
COC(=O)c1c2c(cc3c1CC1(Cc4cc5c(cc4C1)CCCC5)C3)CCCC2 | > 100 µM | 28.6 µM | > 100 µM | > 100 µM | > 100 µM | > 100 µM | > 100 µM | > 100 µM | > 100 µM
COc1ccccc1-c1cc(=O)c2cccnc2[nH]1 | > 100 µM | > 100 µM | > 100 µM | > 100 µM | > 100 µM | > 100 µM | > 100 µM | > 100 µM | > 100 µM
C=C(CCC(=O)N(CCc1c[nH]c2ccccc12)C(=O)c1ccccc1CSCC)C(=O)OC | > 100 µM | > 100 µM | > 100 µM | > 100 µM | > 100 µM | > 100 µM | > 100 µM | > 100 µM | > 100 µM
COc1cc(C2C3=C(NC(=O)C2C#N)c2ccc4ccccc4c2OCC3)cc(OC)c1OC (stereo not drawn) | 44 µM | 29.1 µM | > 100 µM | > 100 µM | – | 72.5 µM | – | > 100 µM | > 100 µM
CCOC(=O)CSc1nc(-c2ccc(Cl)cc2)c(C#N)c(=O)[nH]1 | > 100 µM | > 100 µM | > 100 µM | > 100 µM | – | – | > 100 µM | > 100 µM | > 100 µM
Cc1cc(C)n(C(=CC(=O)C(Cl)Cl)n2nc(C)cc2C)n1 | > 100 µM | 6.81 µM | – | 7.42 µM | 3.67 µM | 15.7 µM | 12.3 µM | 0.806 µM | 10.7 µM
CC(=O)CCN1CC2CN=NC2(C#N)C1 (stereo not drawn) | > 100 µM | > 100 µM | > 100 µM | > 48.2 µM | > 100 µM | > 100 µM | > 100 µM | > 56.7 µM | > 100 µM
O=c1[nH]c2ccccc2c(=O)n1/N=C\c1ccccc1O | > 100 µM | > 100 µM | > 100 µM | > 100 µM | > 100 µM | – | > 100 µM | > 100 µM | –
Cc1c(-c2ccccc2)oc(=O)c2ccccc12 | – | 56.4 µM | 34.6 µM | > 100 µM | 40.4 µM | 52.8 µM | 36.5 µM | 60.1 µM | 75.4 µM
N=C(N)c1ccc(N=Nc2c(O)c(C(=O)Nc3ccccc3)cc3ccccc23)cc1 | > 100 µM | 12.5 µM | 42.4 µM | > 80.4 µM | – | 97.3 µM | 22.4 µM | 8.33 µM | > 100 µM

Structure (SMILES) | TGI (A498 renal) | TGI (HCT-116 colon) | TGI (HT29 colon) | TGI (K-562 leukemia) | TGI (LOX IMVI melanoma) | TGI (MALME-3M melanoma) | TGI (MDA-MB-231 breast) | TGI (MOLT-4 leukemia) | TGI (NCI/ADR-RES ovarian)
N#Cc1nc(-c2ccsc2)oc1N | > 100 µM | > 100 µM | > 100 µM | > 100 µM | > 100 µM | – | > 100 µM | > 100 µM | –
CC(C)(C)C(=O)C(N)C(=O)C(C)(C)C | – | > 100 µM | – | > 100 µM | > 100 µM | > 100 µM | > 100 µM | > 100 µM | > 100 µM
CC1=NN(C(=O)CC(=O)Nc2cccc(C)c2)C(=O)C1N=Nc1ccc(C(=O)O)cc1 (stereo not drawn) | > 100 µM | > 100 µM | > 100 µM | > 100 µM | > 100 µM | > 100 µM | > 100 µM | – | > 100 µM
CCOC(=O)CCC(C(=O)OCC)n1nnc2cc(Nc3c(C)[n+]([O-])c4cc(Cl)ccc4[n+]3[O-])ccc21 (stereo not drawn) | > 100 µM | > 100 µM | > 100 µM | > 100 µM | > 100 µM | > 100 µM | – | > 100 µM | > 100 µM
O=C(CN1CCCC1)Nc1ccc2c(c1)C1Oc3ccccc3CC1CO2 (stereo not drawn) | > 100 µM | > 100 µM | – | > 100 µM | 44.5 µM | 33.4 µM | 75.7 µM | > 100 µM | > 100 µM
C=C(C)C1CCC2(C)C1CCC1(C)C2CCC2C3(C)C4OC(OC4=O)C(C)(C)C3CCC21C (stereo not drawn) | > 100 µM | > 100 µM | > 100 µM | > 100 µM | > 100 µM | – | > 100 µM | > 100 µM | > 100 µM
C/C(=C\C(=O)O)C(=O)N(C)c1ccccc1I | > 100 µM | > 100 µM | – | > 100 µM | > 100 µM | > 100 µM | > 100 µM | > 100 µM | > 100 µM
CC1CC(C)(C)CC(OCCN2CCCCC2)(c2ccccc2)C1 (stereo not drawn) | 26.1 µM | 18.9 µM | 9.92 µM | 28.7 µM | 21.3 µM | 23.4 µM | 24.9 µM | – | 33.9 µM
Cc1cc(C)nc(NS(=O)(=O)c2ccc(NC(=O)c3ccc4nc5ccccc5c(Nc5ccc(S(=O)(=O)N=C(N)N)cc5)c4c3)cc2)n1 | – | > 100 µM | > 100 µM | > 100 µM | > 100 µM | > 100 µM | > 100 µM | > 100 µM | > 100 µM
CCCCCCCCCCCCCCCCOC[C@H](COC(c1ccccc1)(c1ccccc1)c1ccccc1)O[P+](=S)OC (stereo partly drawn) | > 100 µM | > 100 µM | > 100 µM | > 100 µM | > 100 µM | – | > 100 µM | > 100 µM | > 100 µM
COC(=O)[C@]1(c2cc3ccccc3[nH]2)CC2CNC1C1OC(C)(C)OC21 (stereo partly drawn) | – | > 100 µM | > 100 µM | > 100 µM | > 100 µM | > 100 µM | > 100 µM | > 100 µM | > 100 µM
Cc1cc(S(=O)(=O)NC2=NCc3c(F)cccc3N2)c(S)cc1Cl | > 100 µM | > 100 µM | – | – | > 100 µM | > 100 µM | > 100 µM | > 100 µM | > 100 µM
Cc1cc(Br)c(O)c(-c2cscn2)c1 | 76.8 µM | 25.2 µM | > 100 µM | 25.2 µM | 23.1 µM | 43.7 µM | – | – | 56.9 µM
FC(F)(Sc1ncccn1)c1nc2ccccc2o1 | > 100 µM | > 100 µM | > 100 µM | > 100 µM | – | > 100 µM | > 100 µM | > 100 µM | > 100 µM
CCN(CCCl)c1cc(CN(C)C)cc(NC(=O)c2ccc(C(=O)Nc3cccc(N(CCCl)NN)c3)cc2)c1 | – | 10.1 µM | 0.0409 µM | 0.199 µM | 0.034 µM | 0.0939 µM | 0.69 µM | 0.0285 µM | 12.7 µM
Cc1c(C)c2c(c(N)c1C#N)C(=O)N(NC(=S)Nc1ccccc1)C2=O | – | > 100 µM | > 100 µM | > 100 µM | – | > 100 µM | > 100 µM | > 100 µM | > 100 µM
COC1=C(OC)C(=O)C(Cc2c(-c3ccccc3)nc3sc(Cl)cn23)=C(C)C1=O | 47.2 µM | 39.9 µM | 41.7 µM | 52.4 µM | 71.7 µM | 33.2 µM | 24.6 µM | – | 39.9 µM
Nc1c(-c2ccccc2)c2ccc([N+](=O)[O-])cc2c(=O)n1-c1cccc(C(=O)O)c1 | > 100 µM | > 100 µM | > 100 µM | > 100 µM | > 100 µM | – | > 100 µM | > 100 µM | > 100 µM
